Laboratory results published in patent US8986696B2, “Trans-capsular administration of p38 map kinase inhibitors into orthopedic joints” (DePuy Mitek, Inc., priority 2007, dated 2015).

Tests used:
[1] = system: IL-1β-stimulated GAG release, bovine chondrocyte pellets / ARC tissues; assay: chondrocyte pellet culture model: GAG degradation; format: cell-based; conditions: for GAG Release: Pellet Assay
Source text: (§1) Calf articular cartilage was obtained from the knee joints of eight to twelve month old animals and was processed within twenty-four hours after sacrifice. After removal of muscle and ligament, the cartilage was kept moist using phosphate buffer solution (PBS) to prevent tissue dehydration, and was aseptically peeled off from subchondral bone with a scalpel, and the cartilage pieces were further minced into smaller pieces (˜0.3-0.5×˜0.2-0.5 cm cubes). […] Chondrocytes were then enzymatically isolated from the tissue by incubation for overnight at 37° C. with gentle agitation in 0.2% collagenase in Dulbecco's modified eagle media (DMEM). After removal of tissue debris by filtration through cell strainer and the residual collagenase by 3× wash in PBS, cells were finally resuspended at a density of 2.5×10^6 cells/ml in chondrocyte medium. A 1 ml aliquot of the cell suspension was dispensed into either a 15 ml Falcon centrifuge tube or a 96 deep-well plate and centrifuged at 2000×g for five minutes. The chondrocyte pellets were incubated at 37° C. in a humidified atmosphere of 5% CO2 for two to three weeks with a medium change every other day.
(§2) As an alternative to using calf articular cartilage, a commercial Alginate Recovered Chondrocytes (ARC) system was also used (Articular Engineering, LLC (Northbrook, Ill.)). Use of the commercial system cut down on labor and time in producing chondrocyte pellet. This system produced cartilaginous tissue in vitro using bovine chondrocytes. The first step consisted of culturing chondrocytes in alginate under conditions optimal for the formation of a cell-associated matrix (CM). The second step allowed these cells with their CM, after recovery, to rapidly form and become integrated into a solid mass of cartilage on a porous insert within two weeks. This tissue is rich in cells surrounded by a cell-associated matrix that is degraded rapidly when the cells are exposed to IL-1. ARC tissues in 3 mm punches at delivery were first dispensed into a 96 deep-well plate, one punch per well, for compound treatment. The subsequent procedures were the same as those used for the chondrocyte pellets.
(§3) Chondrocyte pellets were washed once with 1 ml of Chondrocyte Stimulation Medium and equilibrated in the same medium at room temperature for fifteen to thirty minutes. Compounds were dissolved in H2O, Ethanol or dimethyl sulfoxide (DMSO) (10^−2 M) according to suppliers' instructions and further diluted with Chondrocyte Stimulation Medium to the required concentrations. DMSO concentrations in the culture media should not exceed 1%; this concentration of DMSO has no effect on cartilage proteoglycan metabolism in response to cytokines.
[…] At the end of the incubation, media and pellets were harvested and frozen for further analysis. Pellets were also fixed as needed in 4% (w/v) paraformaldehyde in PBS for histology analysis.
Glycosaminoglycan (GAG) levels in the culture media were determined by measuring the amount of polyanionic material reacting with 1,9-dimethylmethylene blue (DME) as detected by absorbance at 525 nm, using shark chondroitin sulfate as a standard. The DME blue dye-binding solution was prepared by dissolving 16 mg of DME blue in a solution containing 0.304% glycine, 0.23% sodium chloride (NaCl), 9.5 mM hydrochloric acid (HCl), pH=3.0 with absorbance at 525 equal to 0.31. Proteoglycans and proteoglycan metabolites in chondrocyte pellet were released by digesting the pellet with 125 μg/ml of papain in 0.1 M PBS, pH 6.0, 5 mM cysteine, 5 mM ethylene-diamine-tetra-acetic acid disodium salt (Na2EDTA) at 50° C. for overnight. Results are reported as either micrograms of GAG per milliliter or percent of total GAG released into culture medium.

[2] = system: injured cartilage explants, GAG release; assay: drop tower design model: GAG release; format: cell-based, bovine
Source text: (§4) The device comprises a vertical rail that guides a sliding weight from 0.1 kg to 3 kg directly onto a force transducer which is situated at the bottom of the device. A sphere-shaped 2 mm indenter resting on a specimen is located at the bottom of the vertical rail. The indenter is held by a stop screw. The specimen is rigidly attached to a tissue holder underneath the indenter, to avoid side movements, the specimen is rigidly attached to the tissue holder. In this manner, the force transducer transduces a force indirectly onto the specimen. Adjusting the weight of a mass and height from which the mass drops varies the magnitude of the intended impact. For example, a weight mass (e.g., […]) held by a weight holder can be released from a height of e.g., 36 cm and dropped onto the force transducer.
Samples for compound evaluation were tested using either of two different methods to induce inflammatory conditions. One method utilized media conditioned from peripheral blood mononuclear cells (PBMCs) stimulated with LPS (“+LPS”) or non-inflammatory media without LPS (“−LPS”). Another method utilized the absence or presence of a cocktail of cytokines.
In the first method, bovine or human PBMCs were freshly prepared using Ficoll gradient by Lampire Biological Laboratories, Inc. PBMCs in RPMI w/10% FCS at delivery were spun down at 1500 rpm for twenty minutes and the cell pellet was washed twice with 1×PBS to wash off the residual Ficoll. The cells were then resuspended at a density of 1×10^6/ml in RPMI supplemented with 10% FCS, 1× Antibiotics-Antimycotics. The suspension was divided into two aliquots. One aliquot was stimulated with 10 μg/ml of LPS and the other was not stimulated. Both aliquots were then incubated at 37° C., 5% CO2 for twenty-four to seventy-two hours. The conditioned media with or without LPS stimulation are collected, aliquoted, and stored in −80° C. for a maximum of three months. Each conditioned medium was assessed for levels of pro-inflammatory cytokines to ensure their secretion from PBMC. A representative cytokine, IL-6, was assayed by ELISA using a Human IL-6 Quantikine kit and it was shown that the LPS-stimulated medium had at least 10 ng/ml of IL-6, while IL-6 was undetectable in the unstimulated medium.
In the second method, the explants were cultured at 37° C., 5% CO2 either in stimulated or non-stimulated conditioned medium as described above or in defined medium containing DMEM supplemented with 1% FCS, 1× insulin-transferrin-sodium selenite media supplement and Antibiotics-Antimycotics in the presence or absence of a cocktail of cytokines containing 10 ng/ml of IL-1β, 100 ng/ml of TNFα and 5 ng/ml of IFN-γ. The compounds were solubilized in H2O, Ethanol or DMSO (10^−2 M) according to suppliers' instructions and further diluted with either conditioned medium stimulated with or without LPS to the required concentrations. DMSO concentrations in the culture media never exceeded 1%. This concentration of DMSO has no effect on cartilage proteoglycan metabolism in response to cytokines. The injured and noninjured cartilage explants were treated with compound-containing medium for three to five days. The specimens were first treated with compounds at desired concentrations at 37° C. for one hour and then incubated for three to five days in the absence or presence of the cocktail of cytokines. At the end of the incubation, media and cartilage samples were harvested and frozen for further analysis.
Glycosaminoglycan (GAG) levels in the culture media or cartilage were determined by measuring the amount of polyanionic material reacting with 1,9-dimethylmethylene blue (DME) as detected by absorbance at 525 nm, using shark chondroitin sulfate as a standard. The DME blue dye-binding solution was prepared by dissolving 16 mg of DME blue in a solution containing 0.304% glycine, 0.23% NaCl, 9.5 mM HCl, pH=3.0 with A525 equaling 0.31. […]

[3] = system: injured cartilage explants; format: cell-based
Source text: as §4

chondrocytes = format: cell-based
Source text: as §1, §2, §3
(§5) The pellets were first treated with compounds at desired concentrations at 37° C. for one hour and then incubated for three to five days in the absence or presence of 10 ng/ml of IL-1β. At the end of the incubation, media and pellets were harvested and frozen for further analysis. Pellets were also fixed as needed in 4% (w/v) paraformaldehyde in PBS for histology analysis.
The LDH activity was determined colorimetrically in an enzymatic test based on the conversion of lactic acid to pyruvate in the presence of chromagenic substrate tetrazolium salt INT that was reduced to formazan.

[4] = system: IL-1β-stimulated PGE2 synthesis, bovine chondrocyte pellets / ARC tissues; assay: chondrocyte pellet culture model: PGE2; format: cell-based; conditions: for PGE2 Inhibition: Pellet Assay
Source text: as §1, §2, §3, §5
Prostaglandin E2 (PGE2) was measured with a STAT-Prostaglandin E2 EIA ELISA kit (Cayman Biochemicals). This assay is based on the competition between PGE2 from 50 μl samples and a PGE2-alkaline phosphatase conjugate for a limited amount of PGE2 monoclonal antibody in a reaction volume of 150 μl at room temperature for one hour. The antibody-PGE2 complex bound to a goat polyclonal anti-mouse IgG that had been previously attached to the well. After washing to remove any unbound reagents, para-nitrophenyl phosphate (pNPP) was added to the well. The product of this enzymatic reaction absorbs strongly at 412 nm. Because of the large range in response to IL-1β and other cytokines, PGE2 values were converted to log scale prior to doing t-tests.

[5] = system: IL-1β-stimulated NO production, bovine chondrocyte pellets / ARC tissues; assay: chondrocyte pellet culture model: total nitrite/nitrate (NO); format: cell-based; conditions: Pellet Assay
Source text: as §1, §2, §3, §5
Nitrate/Nitrite levels were measured using the Griess reaction (Green L. C. et al., “Analysis of Nitrate, Nitrite, and [15N]nitrate in Biological Fluids,” Anal. Biochem. 126: 131-138 (1982)) with aNitrate/Nitrite Colorimetric Assay Kit (Cayman Chemicals), the contents of which are incorporated herein by reference. The assay involved a simple two-step process. The first step involved conversion of nitrate in 50 μl of culture medium to nitrite utilizing nitrate reductase in a reaction volume of 100 μl at room temperature for two hours. The second step involved the addition of 50 μl of both Griess Reagent 1 and 2, which converted nitrite into a deep purple azo compound in ten minutes. Photometric measurement of the absorbance at 540 or 550 nm due to this azo chromophore accurately determined nitrite concentration. […]

[6] = system: PG release, arthritic joint tissues; conditions: 10^−5 moles/liter or 10^−7 moles/liter; cited from earlier work

CN1C(C(=O)Nc2ccccn2)=C(O)c2ccccc2S1(=O)=O [Piroxicam, reference compound]
GAG Release [1]: No effect | GAG, inhibition of degradation/release ([2]; injured cartilage explants, inflammatory conditions): No effect

CO[C@H]1C[C@@H]2CC[C@@H](C)[C@@](O)(O2)C(=O)C(=O)N2CCCC[C@H]2C(=O)O[C@H]([C@H](C)C[C@@H]2CC[C@@H](O)[C@H](OC)C2)CC(=O)[C@H](C)/C=C(\C)[C@@H](O)[C@@H](OC)C(=O)[C@H](C)C[C@H](C)/C=C/C=C/C=C/1C [Rapamycin, reference compound]
cytotoxicity (LDH, words) [3]: little cytotoxicity | inhibition at 0.01 µM ([2]; Bos taurus, at 0.01 μM): 84% | cytotoxicity to chondrocytes (LDH, words) (chondrocytes): little toxicity

O=C(O)c1cc(O)c2c(c1)C(=O)c1cccc(O)c1C2=O [Rhein, reference compound]
lowest concentration inhibiting proteoglycan degradation ([1]; 10 ng/ml IL-1β, five days): ≤ 0.035 µM | cytotoxicity (LDH, words) [3]: tolerant | PGE2 synthesis ([4]; diacerein at 5.4 μM, rhein at 0.35 μM, 10 ng/ml IL-1β): no effect

CC(C(=O)O)c1ccc(C(=O)c2ccccc2)s1 (stereo not shown) [Tiaprofenic Acid, reference compound]
GAG Release [1]: No effect

Cc1ccc(C(=O)c2ccc(CC(=O)O)n2C)cc1 [Tolmetin, reference compound]
GAG Release [1]: No effect | NO Inhibition [5]: No effect

CC1(C)O[C@@H]2[C@@H](CO[C@@]3(COS(N)(=O)=O)OC(C)(C)O[C@@H]23)O1 [Topramax, reference compound]
GAG Release [1]: No effect | PGE2 Inhibition [4]: No effect | NO Inhibition [5]: No effect

O=C(O)Cc1ccccc1Nc1c(Cl)cccc1Cl [diclofenac]
PG release from arthritic joint tissues [6]: significantly inhibited

COc1ccc2c(c1)c(CC(=O)O)c(C)n2C(=O)c1ccc(Cl)cc1 [indomethacin]
PG release from arthritic joint tissues [6]: significantly inhibited

Madecassoside
GAG Release [1]: No effect | PGE2 Inhibition [4]: No effect | NO Inhibition [5]: No effect
